Data reported in patent US20130189764A1, “SELECTIVE GROWTH MEDIA” (Oxide Limited, priority 2000, published 2013).
≈ marks a conversion by molar mass, not a printed value.

Legend:
[1] = system: Bacillus subtilis strain OCC 214; experiment: growth on nutrient agar streak plates, pure culture (Example 1); assay type: cell-based; conditions: B. subtilis OCC214, nutrient agar, 0-10 mM tested
From the text: In example 1 the sensitivity of Bacillus subtilis strain OCC 214 to alaphosphin or AEP was investigated. […] The organism is known to be LALA-ve, so the observations agree with the known characteristics of the organism.

[2] = system: Enterococcus faecalis OCC 640; experiment: growth on nutrient agar streak plates, pure culture (Example 3); assay type: cell-based; conditions: E. faecalis OCC 640, nutrient agar, 0-10 mM tested
From the text: Example 1 was repeated using Enterococcus faecalis OCC 640 as the test organism.

S. aureus OCC 102 [3] = experiment: growth on nutrient agar, mixed culture with K. pneumoniae (Example 6); assay type: cell-based, Staphylococcus aureus; conditions: S. aureus in mixed culture with K. pneumoniae
From the text: Example 1 was repeated, this time using a mixed culture of K. pneumoniae CMCC 3077 and S. aureus OCC 102. The results for growth in the presence of AEP or alaphosphin are shown in FIGS. 7 and 8 respectively: empty columns represent growth of S. aureus, the shaded columns represent growth of K. pneumoniae. […] Accordingly, there is a considerable alaphosphin concentration range over which S. aureus will readily grow whilst K. pneumoniae will be inhibited. Even if K. pneumoniae cells lyse due to the toxic effect of AEP released intracellularly, the AEP is not toxic for S. aureus at the concentrations involved.

S. aureus OCC 102 [4] = experiment: growth on nutrient agar, mixed culture with E. faecalis (Example 7); assay type: cell-based, Staphylococcus aureus; conditions: S. aureus in mixed culture with E. faecalis
From the text: Example 6 was repeated, this time using a mixed culture of S. aureus OCC 102 and E. faecalis OCC 604, in the presence of AEP or alaphosphin. The empty columns represent growth of S. aureus, the shaded columns represent growth of E. faecalis. […] Thus alaphosphin could be used, when incorporated at an appropriate concentration in a medium, to inhibit growth of organisms such as Enterococci in samples whilst allowing Staphylococci to grow and be detected.

[5] = system: Klebsiella pneumoniae CMCC3077; experiment: total viable count in Nutrient Broth (Example 10); assay type: cell-based; conditions: 5 mM in Nutrient Broth, within a 4 hour period
Procedure: Growth curve data on the activity of alaphosphin towards Klebsiella spp. was generated. Particular attention was paid to measuring the kinetics of inhibition in broth culture. The media used in this work were Buffered Peptone Water, Nutrient Broth and Tryptone Soya Agar. The media were prepared according to the manufacturer's instructions.
The selective agents, AEP (Cat. No. 06655) and alaphosphin (Cat. No. 05260), were supplied by Fluka. They were dissolved in water at 0.5M concentration, filter-sterilised, and 100 μl added to 10 ml of Nutrient Broth to give a final concentration in the test medium of 5 mM of AEP or alaphosphin respectively.
Klebsiella pneumnoniae CMCC3077 was chosen, as it is a food isolate and work had been carried out previously on this organism using alaphosphin and AEP (see preceding examples). The organism was inoculated into Nutrient Broth and incubated overnight at 37° C. […] The test media were incubated at 37° C., and sampled at hourly intervals. The cultures were serially diluted in Buffered Peptone Water and inoculated onto Tryptone Soya Agar. These plates were incubated overnight at 37° C. and the total viable count made the next day.
Typical results are shown in FIG. 15 which is a graph of total viable count (log10 cfu/ml) against time (hours).

Citrobacter freundii 370 [6] = experiment: MIC / growth in DMSal (Example 16); assay type: cell-based; conditions: Citrobacter freundii 370, DMSal, 1.5 μg/ml
Procedure: (§1) The experiments were conducted as follows: nutrient agar medium was autoclaved and, on cooling (but prior to setting) filter-sterilised alaphosphin or AEP were incorporated at final concentrations of 1 mM, 2 mM, 5 mM and 10 mM, and the medium used to pour plates. Control plates were prepared using nutrient agar without alaphosphin or AEP. A single colony of the organism under test was inoculated in 10 ml of nutrient broth and incubated (without agitation) at 37° C. for 4 hours.
(§2) Trp-AEP was compared to alaphosphin (Ala-AEP) for selective growth of Salmonella strains on DMSal agar.

Klebsiella aerogenes 323 = experiment: MIC / growth in DMSal (Example 16); assay type: cell-based; conditions: Klebsiella aerogenes 323, DMSal, 1.5 μg/ml
Procedure: as §1, §2

[7] = system: Klebsiella pneumoniae 411; experiment: MIC / growth in DMSal (Example 16); assay type: cell-based; conditions: Klebsiella pneumoniae 411, DMSal, 1.5 μg/ml
Procedure: as §1, §2

Salmonella arizonae 1200 = experiment: MIC / growth in DMSal (Example 16); assay type: cell-based; conditions: Salmonella arizonae 1200, DMSal, 1.5 μg/ml
Procedure: as §1, §2

[8] = system: Salmonella enteriditis 723; experiment: MIC / growth in DMSal (Example 16); assay type: cell-based; conditions: Salmonella enteriditis 723, DMSal, 1.5 μg/ml
Procedure: as §1, §2

[9] = system: Salmonella typhimurium 722; experiment: MIC / growth in DMSal (Example 16); assay type: cell-based; conditions: Salmonella typhimurium 722, DMSal, 1.5 μg/ml
Procedure: as §1, §2

Salmonella virchow 703 = experiment: MIC / growth in DMSal (Example 16); assay type: cell-based; conditions: Salmonella virchow 703, DMSal, 1.5 μg/ml
Procedure: as §1, §2

Serratia marcescens 217 = experiment: MIC / growth in DMSal (Example 16); assay type: cell-based; conditions: Serratia marcescens 217, DMSal, 1.5 μg/ml
Procedure: as §1, §2

Citrobacter freundii 370 [10] = experiment: MIC in DMSal medium (Example 17); assay type: cell-based; conditions: Citrobacter freundii, 370
[11] = system: Enterobacter sakazakii 1888; experiment: MIC in DMSal medium (Example 17); assay type: cell-based; conditions: Cronobacter sakazakii, 1888
[12] = system: Salmonella typhimurium 722; experiment: MIC in DMSal medium (Example 17); assay type: cell-based; conditions: Salmonella enterica, TYPHIMURIUM
Procedure: Isoleucyl-AEP and sarcosyl-alanyl-AEP were compared to ala-AEP (all in DMSal medium) for the ability to selectively recover two clinically important pathogenic bacteria: Salmonella and Staphylococcus aureus.
For selective growth of Salmonella inhibition of Citrobacter, Enterobacter sakazakii and E. coli is important. […] Sarcosyl-alanyl-AEP used at a concentration of 1.0 μg/ml is sufficient to inhibit the growth of all three undesired bacteria while having no effect on growth of Salmonella typhimurium. […] Alternatively, a concentration of 2.0 μg/ml of isoleucyl-AEP is required to inhibit the growth of Citrobacter, Enterobacter sakazakii and E. coli and this concentration has no effect on the Salmonella typhimurium strain tested.

[13] = system: Enterococcus faecalis 501; experiment: MIC in DMSal medium (Example 17); assay type: cell-based; conditions: Enterococcus faecalis, 501
Enterococcus faecium 220 = experiment: MIC in DMSal medium (Example 17); assay type: cell-based; conditions: Enterococcus faecium, 220

## C[C@H](N)C(=O)N[C@@H](C)P(=O)(O)O [alaphosphin, L-alanyl-L-1-aminoethylphosphonic acid]
[1]
  sensitivity of growth (in words): completely insensitive
[2]
  concentration at which growth is completely inhibited: ≥ 2 mM
S. aureus OCC 102 [3]
  concentration at which growth is inhibited: 10 mM
S. aureus OCC 102 [4]
  concentration at which growth is inhibited: ≥ 10 mM
[5]
  reduction in the viable count: two to three log reduction
Citrobacter freundii 370 [6]
  growth with Ala-AEP (1.5 μg/ml): Growth
Klebsiella aerogenes 323
  growth with Ala-AEP (1.5 μg/ml): Growth
[7]
  growth with Ala-AEP (1.5 μg/ml): Growth
Salmonella arizonae 1200
  growth with Ala-AEP (1.5 μg/ml): Growth
[8]
  growth with Ala-AEP (1.5 μg/ml): Growth
[9]
  growth with Ala-AEP (1.5 μg/ml): Growth
Salmonella virchow 703
  growth with Ala-AEP (1.5 μg/ml): Growth
Serratia marcescens 217
  growth with Ala-AEP (1.5 μg/ml): Growth
Citrobacter freundii 370 [10]
  MIC: 1 µg/mL (≈ 5.1 µM)
[11]
  MIC: 0.075 µg/mL (≈ 0.382 µM)
[12]
  MIC: 2 µg/mL (≈ 10.2 µM)
[13]
  MIC: 10 µg/mL (≈ 51 µM)
Enterococcus faecium 220
  MIC: > 50 µg/mL
